Measured values taken from patent US20250170141A1, “MRGPRX2 MODULATORS AND RELATED METHODS OF TREATMENT” (Escient Pharmaceuticals, Inc., priority 2023, published 2025).

Biological target: T1, human MRGPRX2 (Homo sapiens, UniProt Q96LB1)
T1 construct: expressed in transfected cells; host or cells: CHO cells, stably transfected (G418 and Hygromycin B selection)
T1 sequence (Q96LB1 1-330): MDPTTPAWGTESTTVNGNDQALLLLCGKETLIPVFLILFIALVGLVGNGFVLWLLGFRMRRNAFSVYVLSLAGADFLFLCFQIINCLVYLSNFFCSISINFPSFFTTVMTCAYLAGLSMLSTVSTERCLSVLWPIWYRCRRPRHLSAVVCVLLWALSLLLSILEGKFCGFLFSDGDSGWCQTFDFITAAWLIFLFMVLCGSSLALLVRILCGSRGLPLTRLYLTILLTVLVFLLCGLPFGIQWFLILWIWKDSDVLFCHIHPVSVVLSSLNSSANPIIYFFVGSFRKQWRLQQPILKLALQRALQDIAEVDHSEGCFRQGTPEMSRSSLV
Assay: MRGPRX2 activity: IP-One Gq HTRF assay in CHO cells, antagonism versus 0.3 uM Cortistatin-14
Assay type: cell-based
Details: versus 0.3 uM Cortistatin-14 agonist, CHO cells expressing human MRGPRX2, read-out: MRGPRX2 Antagonist Activity
Summary of the method: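 CHO cells stably expressing human MRGPRX2 were treated with a 10-point compound curve (30 uM top, 1:3) plus 0.3 μM Cortistatin-14 in LiCl-containing Tris buffer, pH 8. Incubation was 1 h at 37 °C then 1 h at room temperature; IP-1 was detected by HTRF and IC50 came from the HTRF ratio.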

Structure (SMILES)	IC50
O=S1(=O)N=C(NCc2ncccc2F)Nc2c(/C=C/c3ccccc3F)cccc21 [Compound 14-3, (E)-3-(((3-fluoropyridin-2-yl)methyl)amino)-5-(2-fluorostyryl)-4H-benzo[e][1,2,4]thiadiazine 1,1-dioxide]	< 100 nM
CC(C)(c1ccccc1F)c1cccc2c1NC(NCc1ncccc1Cl)=NS2(=O)=O [Compound 15-1, 3-(((3-chloropyridin-2-yl)methyl)amino)-5-(2-(2-fluorophenyl)propan-2-yl)-4H-benzo[e][1,2,4]thiadiazine 1,1-dioxide]	501 to 1000 nM
O=C(c1ccccc1Cl)c1cccc2c1NC(NCc1ncccc1Cl)=NS2(=O)=O [Compound 16-1, (2-chlorophenyl)(3-(((3-chloropyridin-2-yl)methyl)amino)-1,1-dioxido-4H-benzo[e][1,2,4]thiadiazin-5-yl)methanone]	< 100 nM
O=C(c1ccccc1Cl)c1cccc2c1NC(NCc1ccccc1F)=NS2(=O)=O [Compound 16-2, (2-chlorophenyl)(3-((2-fluorobenzyl)amino)-1,1-dioxido-4H-benzo[e][1,2,4]thiadiazin-5-yl)methanone]	< 100 nM
COCCNC1=NS(=O)(=O)c2cccc(C(=O)c3ccccc3Cl)c2N1 [Compound 16-3, (2-chlorophenyl)(3-((2-methoxyethyl)amino)-1,1-dioxido-4H-benzo[e][1,2,4]thiadiazin-5-yl)methanone]	1000 to 2500 nM
O=C(c1ccccc1Cl)c1cccc2c1NC(NCc1ncccc1C(F)(F)F)=NS2(=O)=O [Compound 16-4, (2-chlorophenyl)(1,1-dioxido-3-(((3-(trifluoromethyl)pyridin-2-yl)methyl)amino)-4H-benzo[e][1,2,4]thiadiazin-5-yl)methanone]	< 100 nM
O=C(c1ccccc1Cl)c1cccc2c1NC(NCc1ncccc1F)=NS2(=O)=O [Compound 16-5, (2-chlorophenyl)(3-(((3-fluoropyridin-2-yl)methyl)amino)-1,1-dioxido-4H-benzo[e][1,2,4]thiadiazin-5-yl)methanone]	100 to 500 nM
O=C(c1ccccc1Cl)c1c(F)ccc2c1NC(NCc1ncccc1F)=NS2(=O)=O [Compound 16-6, (2-chlorophenyl)(6-fluoro-3-(((3-fluoropyridin-2-yl)methyl)amino)-1,1-dioxido-4H-benzo[e][1,2,4]thiadiazin-5-yl)methanone]	100 to 500 nM
O=S1(=O)N=C(NCc2ncccc2F)Nc2c(NCc3ccccc3Cl)cccc21 [Compound 17-1, 5-((2-chlorobenzyl)amino)-3-(((3-fluoropyridin-2-yl)methyl)amino)-4H-benzo[e][1,2,4]thiadiazine 1,1-dioxide]	> 2500 nM
O=S1(=O)N=C(NCc2ncccc2F)Nc2c1ccc(F)c2C#Cc1ccccc1 [Compound 19-1, 6-fluoro-3-(((3-fluoropyridin-2-yl)methyl)amino)-5-(phenylethynyl)-4H-benzo[e][1,2,4]thiadiazine 1,1-dioxide]	100 to 500 nM
CCC(c1ccccc1F)c1c(F)ccc2c1NC(NCc1ncccc1F)=NS2(=O)=O (stereo not shown) [Compound 20-1, 6-fluoro-5-(1-(2-fluorophenyl)propyl)-3-(((3-fluoropyridin-2-yl)methyl)amino)-4H-benzo[e][1,2,4]thiadiazine 1,1-dioxide]	< 100 nM
CCC(c1ccccc1F)c1cccc2c1NC(NCc1ncccc1F)=NS2(=O)=O (stereo not shown) [Compound 21-1, 5-(1-(2-fluorophenyl)propyl)-3-(((3-fluoropyridin-2-yl)methyl)amino)-4H-benzo[e][1,2,4]thiadiazine 1,1-dioxide]	< 100 nM
CC(c1ccccc1)c1c(F)ccc2c1NC(NCc1cccc(F)c1)=NS2(=O)=O (stereo not shown) [Compound 22-1, 6-fluoro-3-((3-fluorobenzyl)amino)-5-(1-phenylethyl)-4H-benzo[e][1,2,4]thiadiazine 1,1-dioxide]	< 100 nM
Cc1ccccc1C(C)c1c(F)ccc2c1NC(NCc1cccc(F)c1)=NS2(=O)=O (stereo not shown) [Compound 22-2, 6-fluoro-3-((3-fluorobenzyl)amino)-5-(1-(o-tolyl)ethyl)-4H-benzo[e][1,2,4]thiadiazine 1,1-dioxide]	< 100 nM
CC(c1c(F)ccc2c1NC(NCc1cccc(F)c1)=NS2(=O)=O)C1CCOCC1 (stereo not shown) [Compound 22-3, 6-fluoro-3-((3-fluorobenzyl)amino)-5-(1-(tetrahydro-2H-pyran-4-yl)ethyl)-4H-benzo[e][1,2,4]thiadiazine 1,1-dioxide]	< 100 nM
CC(C)CC(C)c1c(F)ccc2c1NC(NCc1cccc(F)c1)=NS2(=O)=O (stereo not shown) [Compound 22-4, 6-fluoro-3-((3-fluorobenzyl)amino)-5-(4-methylpentan-2-yl)-4H-benzo[e][1,2,4]thiadiazine 1,1-dioxide]	< 100 nM
CC(c1c(F)ccc2c1NC(NCc1cccc(F)c1)=NS2(=O)=O)C1CCCCC1 (stereo not shown) [Compound 22-5, 5-(1-cyclohexylethyl)-6-fluoro-3-((3-fluorobenzyl)amino)-4H-benzo[e][1,2,4]thiadiazine 1,1-dioxide]	< 100 nM
COc1cccc(C(C)c2c(F)ccc3c2NC(NCc2cccc(F)c2)=NS3(=O)=O)n1 (stereo not shown) [Compound 22-6, 6-fluoro-3-((3-fluorobenzyl)amino)-5-(1-(6-methoxypyridin-2-yl)ethyl)-4H-benzo[e][1,2,4]thiadiazine 1,1-dioxide]	< 100 nM
COc1ccc(C(C)c2c(F)ccc3c2NC(NCc2cccc(F)c2)=NS3(=O)=O)c(F)c1 (stereo not shown) [Compound 22-7, 6-fluoro-5-(1-(2-fluoro-4-methoxyphenyl)ethyl)-3-((3-fluorobenzyl)amino)-4H-benzo[e][1,2,4]thiadiazine 1,1-dioxide]	< 100 nM
CC(c1ccc2ccccc2c1)c1c(F)ccc2c1NC(NCc1cccc(F)c1)=NS2(=O)=O (stereo not shown) [Compound 22-8, 6-fluoro-3-((3-fluorobenzyl)amino)-5-(1-(naphthalen-2-yl)ethyl)-4H-benzo[e][1,2,4]thiadiazine 1,1-dioxide]	100 to 500 nM
CC(c1ccc2c(c1)CCCC2)c1c(F)ccc2c1NC(NCc1cccc(F)c1)=NS2(=O)=O (stereo not shown) [Compound 22-9, 6-fluoro-3-((3-fluorobenzyl)amino)-5-(1-(5,6,7,8-tetrahydronaphthalen-2-yl)ethyl)-4H-benzo[e][1,2,4]thiadiazine 1,1-dioxide]	100 to 500 nM
Cc1ccc(C(C)c2c(F)ccc3c2NC(NCc2cccc(F)c2)=NS3(=O)=O)o1 (stereo not shown) [Compound 22-10, 6-fluoro-3-((3-fluorobenzyl)amino)-5-(1-(5-methylfuran-2-yl)ethyl)-4H-benzo[e][1,2,4]thiadiazine 1,1-dioxide]	< 100 nM
CC(c1nccs1)c1c(F)ccc2c1NC(NCc1cccc(F)c1)=NS2(=O)=O (stereo not shown) [Compound 22-11, 6-fluoro-3-((3-fluorobenzyl)amino)-5-(1-(thiazol-2-yl)ethyl)-4H-benzo[e][1,2,4]thiadiazine 1,1-dioxide]	< 100 nM
Cc1cccc(C(C)c2c(F)ccc3c2NC(NCc2cccc(F)c2)=NS3(=O)=O)c1 (stereo not shown) [Compound 22-12, 6-fluoro-3-((3-fluorobenzyl)amino)-5-(1-(m-tolyl)ethyl)-4H-benzo[e][1,2,4]thiadiazine 1,1-dioxide]	< 100 nM
CC(c1ccc(N(C)C)cc1)c1c(F)ccc2c1NC(NCc1cccc(F)c1)=NS2(=O)=O (stereo not shown) [Compound 22-13, 5-(1-(4-(dimethylamino)phenyl)ethyl)-6-fluoro-3-((3-fluorobenzyl)amino)-4H-benzo[e][1,2,4]thiadiazine 1,1-dioxide]	100 to 500 nM
